This is an account of results in ChEMBL document CHEMBL1201862, “PubChem BioAssay data set” (2004).

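96-well plates; 48 h exposure; 5 concentrations. Endpoints by linear interpolation between flanking doses. Not reached: highest tested concentration assigned. GI50 marks 50% less growth.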 Activity calls are given as the source filed them. Rule as the data show it: active = GI50 up to about 1.1 µM and inactive = higher.

Among the test systems are EKVX; RPMI-8226; SK-MEL-28; A549; MDA-MB-231; NCI-H522; SR; SNB-19; SW-620; HCT-116; MDA-MB-435; NCI/ADR-RES; HCT-15; DU-145; HT-29; SNB-75; A498; CCRF-CEM; HOP-92; OVCAR-3.
Holding throughout (test): inhibition of tumour cell growth, NCI panel, 48 h

For `S=C1/C(=N/c2ccccc2)N(c2ccccc2)/C(=N\c2ccccn2)N1c1ccccc1`, the GI50 is 13.5 µM (inactive) in the experiment with EKVX; 6.78 µM (inactive) in the experiment with RPMI-8226; 16.8 µM (inactive) in the experiment with SK-MEL-28; 17.8 µM (inactive) with A549; 16.6 µM (inactive) with MDA-MB-231; 1.63 µM (inactive) in the experiment on NCI-H522. In addition, the GI50 was 7.83 µM (inactive) with SR; 16.3 µM (inactive) in the experiment with SNB-19; 14 µM (inactive) in the experiment with SW-620; 14.2 µM (inactive) in the experiment with HCT-116; 15.2 µM (inactive) in the experiment with MDA-MB-435; 16.7 µM (inactive) in the experiment with NCI/ADR-RES. Besides, the GI50 in the experiment on HCT-15 was 8.18 µM; in the experiment with DU-145 it was 19.8 µM (inactive); in the experiment with HT-29, 11 µM (inactive); in the experiment on SNB-75 it was 14.7 µM (inactive); with A498, 14.5 µM (inactive); in the experiment with CCRF-CEM, > 100 µM (inactive). For the same compound, the GI50 in the experiment on HOP-92 was 13 µM (inactive).

Regarding `c1cc2n(n1)CCN2`, the GI50 in the experiment with EKVX is 1770 µM (inactive); in the experiment on RPMI-8226, 1890 µM (inactive); with SK-MEL-28 it was 7740 µM (inactive); with A549, 1050 µM (inactive); in the experiment on MDA-MB-231, > 1500 µM (inactive); in the experiment on NCI-H522, 2300 µM (inactive). Besides, the GI50 with SR is 733 µM (inactive); with SNB-19, 4030 µM (inactive); in the experiment with SW-620, 3430 µM (inactive); in the experiment with HCT-116, 1950 µM (inactive); with MDA-MB-435, 3940 µM (inactive); with NCI/ADR-RES, 561 µM (inactive). Further, the GI50 in the experiment on HCT-15 was 2140 µM; with DU-145, 3320 µM (inactive); in the experiment on HT-29, 3130 µM (inactive); in the experiment with OVCAR-3 it was 2280 µM (inactive); in the experiment on SNB-75, 3400 µM (inactive); in the experiment on A498 it was 1150 µM (inactive). Further, the figures for the GI50 in the experiment with CCRF-CEM and with HOP-92 were 186 µM (inactive) and 1590 µM (inactive), respectively.

As for `CCOC(=O)/C(C(N)=O)=C(O)/C(O)=C/C(=O)c1ccc(Cl)cc1`, the GI50 with EKVX was 25.9 µM (inactive); with RPMI-8226, 19.8 µM (inactive); in the experiment on SK-MEL-28, 24.8 µM (inactive); with A549 it was 32.4 µM (inactive); with MDA-MB-231, 17.3 µM (inactive); with NCI-H522, 16.2 µM (inactive). In addition, the GI50 was 21.7 µM (inactive) with SR; 33.3 µM (inactive) in the experiment with SNB-19; 20.5 µM (inactive) with SW-620; 14.1 µM (inactive) in the experiment with HCT-116; 23.1 µM (inactive) in the experiment on MDA-MB-435; 21.4 µM (inactive) with NCI/ADR-RES. The GI50 in the experiment on HCT-15 was 17.7 µM; in the experiment with DU-145, 14.8 µM (inactive); in the experiment on HT-29, 21.8 µM (inactive); in the experiment on OVCAR-3, 21.9 µM (inactive); in the experiment on SNB-75, 12.8 µM (inactive); in the experiment with A498 it was > 100 µM (inactive). Besides, the GI50 in the experiment on CCRF-CEM is 4.53 µM (inactive); in the experiment on HOP-92 it was 21.8 µM (inactive).

Take `CNn1c(C)n[nH]c1=O`: the GI50 in the experiment on EKVX, in the experiment on RPMI-8226, with SK-MEL-28, in the experiment with A549, in the experiment with MDA-MB-231 and in the experiment with NCI-H522 was > 100 µM (inactive) each time. Besides, the GI50 with SR, with SNB-19, in the experiment on SW-620, in the experiment on HCT-116, in the experiment with MDA-MB-435 and in the experiment with NCI/ADR-RES was > 100 µM (inactive) throughout. The GI50 in the experiment on HCT-15 is greater than 100 µM; in the experiment with DU-145, > 100 µM (inactive); in the experiment with OVCAR-3, > 100 µM (inactive); in the experiment with SNB-75, 50.8 µM (inactive); in the experiment with A498, > 100 µM (inactive); with CCRF-CEM, > 100 µM (inactive). The GI50 in the experiment with HOP-92 was > 100 µM (inactive).
